Experimental data published in publication PMC6272846, “Synthesis and p38 Inhibitory Activity of Some Novel Substituted N,N′-Diarylurea Derivatives” (Molecules, 2016).

How the values were obtained:
MAPKAPK2 = assay: Inhibition of MAPKAPK2 in GFP-MAPKAPk2_BHK cell model (nuclear translocation); format: cell-based; conditions: GFP-MAPKAPk2_BHK cells
Method: In order to study p38α inhibition in a cell system, we investigated the ability of all compounds to inhibit the phosphorylation of mitogen-activated protein-kinase-activated protein kinase 2 (MAPKAPK2). Each compound was prepared at […] concentrations (1, 3, 10 and 30 nM, 0.1 and 0.3 μM), and the percentages of inhibition were calculated from the numbers of cells after treatment with the different compounds.
GFP-MAPKAPk2_BHK cells were cultured in 96-well plates (2.0 × 10^4/100 μL/well) containing 10% heat-inactivated foetal bovine serum (FBS) and 1 mg/mL G418 at 37 °C in humidified air containing 5% CO2 for 18–24 h. The cells were washed with nutrient solution (100 μL/well) and changed to the compound liquid (100 μL/well). Experiments were set up with the control, and the compound was repeated at each concentration in three wells. The cells were cultured in 96-well plates at 37 °C in humidified air containing 5% CO2 for 90 min. The cells were washed with the dye solution (20 μL/well), and the dyed cells were held for 1 hour at room temperature in the dye liquid. Analysis of nuclear translocation and calculation of the ability of the compounds to inhibit nuclear translocation was performed using the IN Cell Analyzer 1000 Nuclear Trafficking Analysis Module System (GE, Madison, WI, USA). The cultured cells were treated with the obtained compounds in […] concentration grads (1, 3, 10 and 30 nM, 0.1 and 0.3 μM). The inhibitory percentage can be calculated using the amounts of cells after the disposition of the different compounds.

MAPK14/p38α = MAPK14/p38α (Homo sapiens, UniProt Q16539); assay: p38α MAP kinase activity, phosphorylation of ATF-2 (TR-FRET); format: biochemical; conditions: enzyme
Method: Kinase reaction buffer was composed of 50 mM HEPES (pH 7.5), 0.01% BRIJ-35, 10 mM MgCl2 and 1 mM EGTA. Prepared MAPK14/p38α in 1× kinase buffer with concentration at 500 ng/mL. A 2-fold serial dilution was performed using 1× kinase buffer from 500 ng/mL using 16 dose points. […] The reaction was started by adding 5 μL of the GFP-ATF2(19–96) substrate and ATP solution into each well of the assay plate. The final starting concentration of MAPK14/p38α was 250ng/ml, and the final GFP-ATF2 and ATP concentrations were 0.4 μM and 90 μM, respectively. The assay plate was sealed and incubated for 1 hour at room temperature (RT). Antibody solution (1 mL) was prepared from 20 mM EDTA and 4 nM Tb-antipATF2 (pThr71) antibody in TR-FRET dilution buffer. Antibody solution (10 μL) was added into each well of the assay plate and mixed gently. The final EDTA concentration was 10 mM, and the final Tb-antipATF2 (pThr71) concentration was 2 nM. The assay plate was sealed and incubated for 30 minutes at RT.
Inhibitor in 0.5% DMSO (2 μL/well) at 5-fold the final assay concentration was added into a 384-well assay plate. […] MAPK14/p38α (4 μL/well) was added to each well of the 384-well assay plate and incubated for 15 min at RT. To start the reaction, substrate GFP-ATF2 (19–96) and ATP (4 μL/well) were added into kinase reaction buffer. […] The resulting TR-FRET emission ratio was plotted against the concentration of inhibitor, and the data fitted to a sigmoidal dose-response curve with a variable slope. The IC50 concentration was calculated from the curve.

MAPK14/p38α, sequence (Q16539 whole entry): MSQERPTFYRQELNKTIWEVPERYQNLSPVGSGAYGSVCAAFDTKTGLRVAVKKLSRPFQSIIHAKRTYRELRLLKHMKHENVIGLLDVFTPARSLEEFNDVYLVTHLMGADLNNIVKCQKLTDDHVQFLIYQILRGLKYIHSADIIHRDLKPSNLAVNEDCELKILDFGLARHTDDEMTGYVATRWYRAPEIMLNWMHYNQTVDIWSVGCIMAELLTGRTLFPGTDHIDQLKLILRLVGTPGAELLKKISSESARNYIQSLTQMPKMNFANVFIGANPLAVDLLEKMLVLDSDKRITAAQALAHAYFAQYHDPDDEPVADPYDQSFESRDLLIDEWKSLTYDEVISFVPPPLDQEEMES

SMILES	IC50 (MAPKAPK2; bound given in µM)	further results
CC(C)(C)c1cc(NC(=O)Nc2ccccc2OCCN2CCOCC2)n(-c2ccc([N+](=O)[O-])cc2)n1 [28h, 1-(3-(tert-Butyl)-1-(4-nitrophenyl)-1H-pyrazol-5-yl)-3-(2-(2-morpholinoethoxy)phenyl)urea]	> 10 µM	
Cc1ccc(-n2nc(C(C)(C)C)cc2NC(=O)NCc2ccccc2OCCN2CCOCC2)cc1 [30b, 1-(3-(tert-Butyl)-1-(p-tolyl)-1H-pyrazol-5-yl)-3-(2-(2-morpholinoethoxy)benzyl)urea]	> 3 µM	
CC(C)(C)c1cc(NC(=O)NCc2ccccc2OCCN2CCOCC2)n(-c2ccc(Cl)cc2)n1 [30a, 1-(3-(tert-Butyl)-1-(4-chlorophenyl)-1H-pyrazol-5-yl)-3-(2-(2-morpholinoethoxy)benzyl)urea]	> 3 µM	
CC(C)(C)c1cc(NC(=O)Nc2ccccc2OCCN2CCOCC2)n(-c2ccc(Cl)cc2)n1 [28e, 1-(3-(tert-Butyl)-1-(4-chlorophenyl)-1H-pyrazol-5-yl)-3-(2-(2-morpholinoethoxy)phenyl)urea]	> 10 µM	
CC(C)(C)c1cc(NC(=O)NCc2ccccc2OCCN2CCOCC2)n(-c2ccc(S(N)(=O)=O)cc2)n1 [30c, 4-(3-(tert-Butyl)-5-(3-(2-(2-morpholinoethoxy)benzyl)ureido)-1H-pyrazol-1-yl)benzenesulfonamide]	> 3 µM	
CC(C)(C)c1cc(NC(=O)NCc2cc(F)ccc2Oc2ccc3[nH]ncc3c2)n(-c2ccc([N+](=O)[O-])cc2)n1 [25i, 1-(2-((1H-Indazol-5-yl)oxy)-5-fluorobenzyl)-3-(3-(tert-butyl)-1-(4-nitrophenyl)-1H-pyrazol-5-yl)urea]		IC50 (MAPK14/p38α; GFP-ATF2 substrate, 90 μM ATP): 0.00143 ± 8e-05 µM; IC50 (MAPKAPK2): 0.00383 ± 0.00112 µM
Cc1ccc(-n2nc(C(C)(C)C)cc2NC(=O)Nc2ccccc2Oc2ccc3[nH]ncc3c2)cc1 [29a, 1-(2-((1H-Indazol-5-yl)oxy)phenyl)-3-(3-(tert-butyl)-1-(p-tolyl)-1H-pyrazol-5-yl)urea]	> 10 µM	IC50 (MAPK14/p38α; bound given in µM): > 10 µM
Cc1ccc(-n2nc(C(C)(C)C)cc2NC(=O)NCc2cc(F)ccc2Oc2ccc3[nH]ncc3c2)cc1 [25j, 1-(2-((1H-Indazol-5-yl)oxy)-5-fluorobenzyl)-3-(3-(tert-butyl)-1-(p-tolyl)-1H-pyrazol-5-yl)urea]		IC50 (MAPK14/p38α; GFP-ATF2 substrate, 90 μM ATP): 0.00153 ± 7e-05 µM; IC50 (MAPKAPK2): 0.00361 ± 0.00243 µM
Cc1cccc(-n2nc(C(C)(C)C)cc2NC(=O)Nc2ccccc2Oc2ccc3[nH]ncc3c2)c1 [29c, 1-(2-((1H-Indazol-5-yl)oxy)phenyl)-3-(3-(tert-butyl)-1-(m-tolyl)-1H-pyrazol-5-yl)urea]	> 10 µM	
Cc1ccc(-n2nc(C(C)(C)C)cc2NC(=O)Nc2ccccc2OCCN2CCOCC2)cc1 [28a, 1-(3-(tert-Butyl)-1-(p-tolyl)-1H-pyrazol-5-yl)-3-(2-(2-morpholinoethoxy)phenyl)urea]	> 10 µM	IC50 (MAPK14/p38α; bound given in µM): > 10 µM
Cc1cccc(-n2nc(C(C)(C)C)cc2NC(=O)Nc2ccccc2OCCN2CCOCC2)c1 [28c, 1-(3-(tert-Butyl)-1-(m-tolyl)-1H-pyrazol-5-yl)-3-(2-(2-morpholinoethoxy)phenyl)urea]	> 10 µM	
CC(C)(C)c1cc(NC(=O)Nc2ccc(Oc3ccc4[nH]ncc4c3)c3c2OCC=C3)n(-c2ccc([N+](=O)[O-])cc2)n1 [26f, 1-(5-((1H-Indazol-5-yl)oxy)-2H-chromen-8-yl)-3-(3-(tert-butyl)-1-(4-nitrophenyl)-1H-pyrazol-5-yl)urea]		IC50 (MAPKAPK2): 0.0412 ± 0.00146 µM
CC(C)(C)c1cc(NC(=O)Nc2ccccc2OCCN2CCOCC2)n(-c2ccc(F)cc2)n1 [28g, 1-(3-(tert-Butyl)-1-(4-fluorophenyl)-1H-pyrazol-5-yl)-3-(2-(2-morpholinoethoxy)phenyl)urea]	> 10 µM	
CC(C)(C)c1cc(NC(=O)Nc2ccccc2OCCN2CCOCC2)n(-c2ccc(Br)cc2)n1 [28f, 1-(1-(4-Bromophenyl)-3-(tert-butyl)-1H-pyrazol-5-yl)-3-(2-(2-morpholinoethoxy)phenyl)urea]	> 10 µM	
CC(C)(C)c1cc(NC(=O)Nc2ccc(Oc3ccc4[nH]ncc4c3)c3c2OCC=C3)n(-c2ccc(S(N)(=O)=O)cc2)n1 [26c, 4-(5-(3-(5-((1H-Indazol-5-yl)oxy)-2H-chromen-8-yl)ureido)-3-(tert-butyl)-1H-pyrazol-1-yl)benzenesulfonamide]		IC50 (MAPKAPK2): 0.2457 ± 0.00209 µM
COc1ccc(-n2nc(C(C)(C)C)cc2NC(=O)Nc2ccccc2OCCN2CCOCC2)cc1 [28d, 1-(3-(tert-Butyl)-1-(4-methoxyphenyl)-1H-pyrazol-5-yl)-3-(2-(2-morpholinoethoxy)phenyl)urea]	> 10 µM	
CC(C)(C)c1cc(NC(=O)Nc2ccccc2OCCN2CCOCC2)n(-c2ccccc2)n1 [28b, 1-(3-(tert-Butyl)-1-phenyl-1H-pyrazol-5-yl)-3-(2-(2-morpholinoethoxy)phenyl)urea]	> 10 µM	IC50 (MAPK14/p38α; bound given in µM): > 10 µM
COc1ccc(-n2nc(C(C)(C)C)cc2NC(=O)Nc2ccc(Oc3ccc4[nH]ncc4c3)c3c2OCC=C3)cc1 [26d, 1-(5-((1H-Indazol-5-yl)oxy)-2H-chromen-8-yl)-3-(3-(tert-butyl)-1-(4-methoxyphenyl)-1H-pyrazol-5-yl)urea]		IC50 (MAPKAPK2): 0.0698 ± 0.00208 µM
CC(C)(C)c1cc(NC(=O)Nc2ccccc2OCCN2CCOCC2)n(-c2ccc(S(N)(=O)=O)cc2)n1 [28i, 4-(3-(tert-Butyl)-5-(3-(2-(2-morpholinoethoxy)phenyl)ureido)-1H-pyrazol-1-yl)benzenesulfonamide]	> 10 µM	
CC(C)(C)c1cc(NC(=O)NCc2ccccc2OCCN2CCOCC2)n(-c2ccccc2)n1 [30d, 1-(3-(tert-Butyl)-1-phenyl-1H-pyrazol-5-yl)-3-(2-(2-morpholinoethoxy)benzyl)urea]	> 3 µM	
CC(C)(C)c1cc(NC(=O)Nc2ccccc2Oc2ccc3[nH]ncc3c2)n(-c2ccc(Br)cc2)n1 [29f, 1-(2-((1H-Indazol-5-yl)oxy)phenyl)-3-(1-(4-bromophenyl)-3-(tert-butyl)-1H-pyrazol-5-yl)urea]	> 10 µM	
CC(C)(C)c1cc(NC(=O)Nc2ccccc2Oc2ccc3[nH]ncc3c2)n(-c2ccc(F)cc2)n1 [29g, 1-(2-((1H-Indazol-5-yl)oxy)phenyl)-3-(3-(tert-butyl)-1-(4-fluorophenyl)-1H-pyrazol-5-yl)urea]	> 10 µM	
CC(C)(C)c1cc(NC(=O)Nc2ccc(Oc3ccc4[nH]ncc4c3)c3c2OCC=C3)n(-c2ccc(F)cc2)n1 [26e, 1-(5-((1H-Indazol-5-yl)oxy)-2H-chromen-8-yl)-3-(3-(tert-butyl)-1-(4-fluorophenyl)-1H-pyrazol-5-yl)urea]		IC50 (MAPK14/p38α; GFP-ATF2 substrate, 90 μM ATP): 0.00596 ± 1e-05 µM; IC50 (MAPKAPK2): 0.038 ± 0.00124 µM
COc1ccc(-n2nc(C(C)(C)C)cc2NC(=O)Nc2ccccc2Oc2ccc3[nH]ncc3c2)cc1 [29d, 1-(2-((1H-Indazol-5-yl)oxy)phenyl)-3-(3-(tert-butyl)-1-(4-methoxyphenyl)-1H-pyrazol-5-yl)urea]	> 10 µM	
Cc1ccc(-n2nc(C(C)(C)C)cc2NC(=O)Nc2ccc(Oc3ccc4[nH]ncc4c3)c3c2OCC=C3)cc1 [26a, 1-(5-((1H-Indazol-5-yl)oxy)-2H-chromen-8-yl)-3-(3-(tert-butyl)-1-(p-tolyl)-1H-pyrazol-5-yl)urea]		IC50 (MAPKAPK2): 0.0607 ± 0.00231 µM
CC(C)(C)c1cc(NC(=O)Nc2ccccc2Oc2ccc3[nH]ncc3c2)n(-c2ccc(S(N)(=O)=O)cc2)n1 [29i, 4-(5-(3-(2-((1H-Indazol-5-yl)oxy)phenyl)ureido)-3-(tert-butyl)-1H-pyrazol-1-yl)benzenesulfonamide]	> 10 µM	
CC(C)(C)c1cc(NC(=O)Nc2ccccc2Oc2ccc3[nH]ncc3c2)n(-c2ccc(Cl)cc2)n1 [29e, 1-(2-((1H-Indazol-5-yl)oxy)phenyl)-3-(3-(tert-butyl)-1-(4-chlorophenyl)-1H-pyrazol-5-yl)urea]	> 10 µM	
CC(C)(C)c1cc(NC(=O)Nc2ccccc2Oc2ccc3[nH]ncc3c2)n(-c2ccc([N+](=O)[O-])cc2)n1 [29h, 1-(2-((1H-Indazol-5-yl)oxy)phenyl)-3-(3-(tert-butyl)-1-(4-nitrophenyl)-1H-pyrazol-5-yl)urea]	> 10 µM	
